As usually defined, the IC50 is the concentration that gives 50% inhibition.

Sequence of human recombinant H-PGDS (O60760 whole entry): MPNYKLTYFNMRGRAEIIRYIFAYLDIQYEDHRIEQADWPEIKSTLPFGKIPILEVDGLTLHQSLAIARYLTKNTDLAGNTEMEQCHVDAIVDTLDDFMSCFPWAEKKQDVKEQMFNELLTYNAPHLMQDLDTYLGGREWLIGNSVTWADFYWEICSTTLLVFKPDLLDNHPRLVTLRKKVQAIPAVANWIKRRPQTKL

The target of the assay is human recombinant H-PGDS (Homo sapiens, UniProt O60760). The assay can be described thus: Fluorescence intensity h-PGDS TBA enzyme assay (PGH2 depletion, MDA/TBA fluorescence). The note with it: 1:175,000 human recombinant H-PGDS, 42 second reaction, 3-fold serial dilutions, highest concentration typically 1 μM. It counts as biochemical. Here is the method:
Fluoresecence Intensity h-PGDSTBA Enzyme Assay
Prostaglandin D Synthase (PGDS) converts the substrate prostaglandin H2 (PGH2) to prostaglandin D2. The depletion of PGH2 was measured via an Fe(II) reduction of the remaining PGH2 to malondialdehyde (MDA) and 12-HHT. The enzyme assay is based on the quantitative formation of a fluorescent complex from the non-fluorescent compounds MDA and 2-thiobarbituric acid (TBA), substantially as described in U.S. patent application publication US-2004/152148 by Lombardt.
The enzyme assay (31 μls) contained 100 mM Tris base pH 8.0, 100 μM MgCl2, 0.1 mg/ml IgG Rabbit serum, 5.0 μM PGH2 (Cayman; ethanol solution, #17020), 2.5 mM L-Glutathione (Sigma; reduced form. #G4251), 1:175,000 human recombinant H-PGDS (from 1 mg/ml), 0.5% DMSO and inhibitor (varying concentration). Three μls of diluted inhibitor (dissolved in DMSO) was plated into a 384-well assay plate followed by a 25 μl addition of an enzyme solution containing h-PGDS, Tris, MgCl2, IgG and L-Glutathione. After preincubation of inhibitor and enzyme solution for 10 minutes at room temperature, the reaction was initiated with a 3 μl addition of substrate solution in 10 mM HCl. The reaction was terminated after 42 second by the addition (3 μl) of stop buffer containing FeCl2 and citric acid. After addition of 45.5 μls of TBA plates were heated for one hour in a 70° C. oven. Plates were cooled at room temperature overnight and read on a plate reader the next day with excitation @ 530 nm and emission @ 565 nm.
IC50' s of inhibitors were calculated with a 4-parameter fit using 11 inhibitor concentrations in duplicate with 3-fold serial dilutions. Controls on each plate included no inhibitor (zero % effect) and an inhibitor 10-fold in excess of its' IC50 (100% effect). The highest inhibitor concentration tested was typically 1 μM.
As for `Cc1ccnn1CC(=O)N[C@H]1CC[C@H](NC(=O)c2ccc(-c3cccc(F)c3)nc2)CC1` [Example 113M, 6-(3-fluorophenyl)-N-(trans-4-{[(5-methyl-1H-pyrazol-1-yl)acetyl]amino}cyclohexyl)nicotinamide], the concentration for half-maximal inhibition (IC50) is 7.6 nM. For the compound `COCC(=O)N[C@H]1CC[C@H](NC(=O)c2ccc(-c3cccc(F)c3)nc2)CC1` [Example 113N, 6-(3-fluorophenyl)-N-{trans-4-[(methoxyacetyl)amino]cyclohexyl}nicotinamide], the IC50 was 11.5 nM. On to `O=CN[C@H]1CC[C@H](NC(=O)c2ccc(-c3cccc(F)c3)nc2)CC1` [Example 113O, 6-(3-fluorophenyl)-N-(trans-4-formamidocyclohexyl)nicotinamide], for which the IC50 was determined as 7.3 nM. Turning to `CC(=O)NC(C)(C)[C@H]1CC[C@H](NC(=O)c2ccc(-c3cccc(F)c3)nc2)CC1` [Example 113P, N-[trans-4-(1-acetamido-1-methylethyl)cyclohexyl]-6-(3-fluorophenyl)nicotinamide], the IC50 was 9.1 nM.

On to `C[C@@H](N)C(=O)N[C@H]1CC[C@H](NC(=O)c2ccc(-c3cccc(F)c3)nc2)CC1` [Example 113Q, N-[trans-4-(D-alanylamino)cyclohexyl]-6-(3-fluorophenyl)nicotinamide], for which the IC50 was found to be 9.7 nM. Take `C[C@H](N)C(=O)N[C@H]1CC[C@H](NC(=O)c2ccc(-c3cccc(F)c3)nc2)CC1` [Example 113R, N-[trans-4-(L-alanylamino)cyclohexyl]-6-(3-fluorophenyl)nicotinamide]: the concentration for half-maximal inhibition (IC50) stood at 13.8 nM.

Take `O=C(N[C@H]1CC[C@H](CO)CC1)c1cnc(-c2cccc(F)c2)c(Cl)c1` [Example 114, 5-Chloro-6-(3-fluorophenyl)-N-[trans-4-(hydroxymethyl)cyclohexyl]nicotinamide]: the concentration for half-maximal inhibition (IC50) was 4.41 nM. On to `O=C(NC1CCC(F)(F)CC1)c1ccc(-c2cccc(F)c2)nc1` [Example 119, N-(4,4-Difluorocyclohexyl)-6-(3-fluorophenyl)nicotinamide], for which the half-inhibitory concentration (IC50) worked out at 1.28 nM. As to `O=C(NC1CCCc2ccccc21)c1ccc(-c2ccccc2)nc1` (centres unmarked) [Example 120, 6-Phenyl-N-(1,2,3,4-tetrahydronaphthalen-1-yl)nicotinamide], the IC50 was found to be 1.77 nM. For the compound `COc1cccc(-c2ccc(C(=O)NC3CCCc4ccccc43)cn2)c1` (centres unmarked) [Example 121, 6-(3-Methoxyphenyl)-N-(1,2,3,4-tetrahydronaphthalen-1-yl)nicotinamide], the IC50 came to 88 nM. For `O=C(NC1CCCc2ccccc21)c1ccc(-c2cccc(F)c2)nc1` (centres unmarked) [Example 122, 6-(3-Fluorophenyl)-N-(1,2,3,4-tetrahydronaphthalen-1-yl)nicotinamide] the value was 4.16 nM; for `O=C(NC1CCCc2ccccc21)c1ccc(-c2ccc(F)cc2)nc1` (centres unmarked) [Example 123, 6-(4-Fluorophenyl)-N-(1,2,3,4-tetrahydronaphthalen-1-yl)nicotinamide], 30 nM; for `O=C(NC1CCCc2ccccc21)c1ccc(-c2cc(F)cc(F)c2)nc1` (centres unmarked) [Example 124, 6-(3,5-Difluorophenyl)-N-(1,2,3,4-tetrahydronaphthalen-1-yl)nicotinamide], 22.7 nM. For `O=C(NC12CC(C1)C2)c1ccc(-c2cccc(F)c2)nc1` [Example 125, N-Bicyclo[1.1.1]pent-1-yl-6-(3-fluorophenyl)nicotinamide] the value was 6.66 nM. In the case of `CC(C)n1ncc2c1CCCC2NC(=O)c1ccc(-c2cccc(F)c2)nc1` (centres unmarked) [Example 129, 6-(3-Fluorophenyl)-N-(1-isopropyl-4,5,6,7-tetrahydro-1H-indazol-4-yl)nicotinamide] it was 194 nM. With `O=C(N[C@@H]1CC[C@@H](O)C1)c1ccc(-c2cccc(F)c2)nc1` [Example 130A, 6-(3-fluorophenyl)-N-[(1R,3R)-3-hydroxycyclopentyl]nicotinamide], the IC50 was 52.3 nM. Turning to `N[C@H]1CC[C@H](NC(=O)c2ccc(-c3cccc(F)c3)nc2)CC1` [Example 142B, N-(trans-4-Aminocyclohexyl)-6-(3-fluorophenyl)nicotinamide], the IC50 came out at 16.4 nM.
